Consider one compound from paper PMC12454639, “Direct disassembly of α-syn preformed fibrils into α-syn monomers by an all-D-peptide” (NPJ Parkinson's Disease, 2025).

The experiment concerns small α-syn PFF. The experiment can be described thus: 100 kDa MWCO size-based fractionation of small α-syn PFF followed by ELISA. It counts as biochemical, Human. The conditions noted are these: 200 nM PFF, 72 h, 37 °C, n = 3. Here is the method:
Fig. 4 SVD-1a disassembles small α-syn PFF seeds into α-syn monomers. Small α-syn PFF seeds were prepared as described previously. […] A and B Time-dependent DLS measurements with 200 nM small α-syn PFF seeds in the absence (A) and presence (B) of 500 nM SVD-1a. 1 ml sample was continuously measured in a sealed quartz cuvette at 37 °C under quiescent conditions every 60 s for 72 h in a SpectroSize 300 instrument (XtalConcepts, GE). Data are shown as a radius plot where the signal amplitude of each particle size is represented by the data point diameter. C One-phase exponential decay fit of “200 nM PFF + 500 nM SVD-1a” shown in (B). […] PFF and monomer samples that were incubated without SVD-1a served as controls. α-Syn was detected with the antibody Syn211. […] In the upper part of the blot, above the marker range, PFFs were detected, using a longer exposure time due to a weaker signal (see Supplementary Fig. 11 for the whole blot image with different exposure times). F Size-based fractionation by centrifugal concentration followed by ELISA quantification. […] After incubation, the samples were fractioned using a 100 kDa MWCO centrifugal concentrator (Merck, Microcon DNA Fast Flow 100 MWCO). α-Syn content of flow through (red) and retentate (blue) was quantified using an α-syn specific ELISA (BioLegend, Human α-Synuclein (Colorimetric), 448607). […]
A general note: An ELISA detects its analyte on a solid surface through an enzyme-linked reagent.

Square brackets hold non-standard residues; d marks the D form. Peptide text beside a SMILES is read from it.

Consider `CC[C@@H](C)[C@@H](NC(=O)[C@@H](Cc1c[nH]cn1)NC(=O)[C@@H](CCC(=O)O)NC(=O)[C@@H](CCC(N)=O)NC(=O)[C@@H](Cc1c[nH]c2ccccc12)NC(=O)[C@@H](Cc1ccc(O)cc1)NC(=O)[C@H](NC(=O)[C@@H](CCC(=O)O)NC(=O)[C@@H](Cc1c[nH]cn1)NC(=O)[C@H](NC(=O)[C@H]1CCCN1C(=O)[C@@H](CC(C)C)NC(=O)[C@H](N)CCCNC(=N)N)[C@H](C)O)[C@H](C)O)C(=O)N[C@H](Cc1c[nH]c2ccccc12)C(=O)N[C@H](Cc1c[nH]cn1)C(=O)N[C@H](C)C(=O)N[C@H](CCCNC(=N)N)C(=O)N[C@H](CCCNC(=N)N)C(=O)N[C@H](CCCNC(=N)N)C(=O)N[C@H](CCCNC(=N)N)C(=O)N[C@H](CCCNC(=N)N)C(N)=O` [SVD-1a] (H-[dR][dL][dP][dT][dH][dE][dT][dY][dW][dQ][dE][dH][dI][dW][dH][dA][dR][dR][dR][dR][dR]-NH2), for which, for the setting “increasing SVD-1a, 100 kDa MWCO, ELISA”, the “α-syn fraction in retentate / eluate” value is recorded as “concentration-dependent decrease of the α-syn fraction in the retentate—corresponding to small α-syn PFF—and an increase in the eluate”. Besides, where the note is “1000 nM SVD-1a”, the “α-syn distribution vs monomer control” value is listed as “shows the same distribution as the monomer control”.
